PubChem BioAssay (NCI)
Where “and” joins values, the source holds several entries; their conditions need not be identical. Identical values can stand only once.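 Cultured in 96-well plates, cells were exposed to test compound for 48 hours across five concentrations. GI50 marks 50% less growth. The concentration for full growth arrest is given as TGI.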

Experiments:
Assay in all cases: NCI anticancer screen, dose series, 48 h
[1] = test system: NCI/ADR-RES ovarian
[2] = test system: K-562 leukemia
[3] = test system: OVCAR-8 ovarian
[4] = test system: OVCAR-3 ovarian
[5] = test system: CAKI-1 renal
[6] = test system: UO-31 renal
[7] = test system: MALME-3M melanoma
[8] = test system: DU-145 prostate
[9] = test system: M14 melanoma
[10] = test system: SF-268 CNS

CC(=O)Nc1c(I)c(NC(C)=O)c(I)c(C(=O)O)c1I
GI50 [1]: > 100 µM | TGI [1]: > 100 µM | GI50 [2]: > 100 µM | TGI [2]: > 100 µM | GI50 [3]: > 100 µM | TGI [3]: > 100 µM | GI50 [4]: > 100000 nM | TGI [4]: > 100 µM | GI50 [5]: > 100 µM | TGI [5]: > 100 µM | GI50 [6]: > 100000 nM | TGI [6]: > 100 µM | GI50 [7]: > 100 µM | TGI [7]: > 100 µM | GI50 [8]: > 100 µM | TGI [8]: > 100 µM | GI50 [9]: > 100 µM | TGI [9]: > 100 µM

N#Cc1c(N)n2c(nc1=Nc1ccc(Cl)cc1)sc1cc(Cl)ccc12
GI50 [1]: 4.69 µM | TGI [1]: 34.8 µM | GI50 [2]: > 100 µM | TGI [2]: > 100 µM | GI50 [4]: 6110 nM | TGI [4]: > 100 µM | GI50 [5]: 22.4 µM | TGI [5]: > 100 µM | GI50 [7]: 6.35 µM and 14.8 µM | TGI [7]: > 100 µM | GI50 [8]: > 100 µM | TGI [8]: > 100 µM | GI50 [9]: 6.59 µM and 5.9 µM | TGI [9]: > 100 µM | GI50 [10]: 4.08 µM | TGI [10]: > 100 µM

Cc1ccc2c(c1)c(Sc1ccc(C(=O)NO)cc1)c1n2CN(C)CC1
GI50 [1]: 3.88 µM | TGI [1]: 19 µM | GI50 [2]: 3.17 µM | TGI [2]: 11.9 µM | GI50 [3]: 1.69 µM | TGI [3]: 4.99 µM | GI50 [4]: 1930 nM | TGI [4]: 5.63 µM | GI50 [5]: 3.87 µM | TGI [5]: 13.9 µM | GI50 [6]: 2150 nM | TGI [6]: 9.1 µM | GI50 [7]: 1.35 µM | TGI [7]: 4.2 µM | GI50 [8]: 1.83 µM | TGI [8]: 5.28 µM | GI50 [9]: 1.72 µM | TGI [9]: 3.79 µM | GI50 [10]: 1.6 µM | TGI [10]: 3.7 µM

CC/C(=C(/c1ccc(O)cc1)c1ccc(OCCN)cc1)c1ccccc1
GI50 [1]: 3.31 µM | TGI [1]: 10.6 µM | GI50 [2]: 2.03 µM | TGI [2]: 4.72 µM | GI50 [3]: 3.12 µM | TGI [3]: 9.94 µM | GI50 [4]: 2960 nM | TGI [4]: 8.01 µM | GI50 [5]: 1.64 µM | TGI [5]: 4.18 µM | GI50 [6]: 2720 nM | TGI [6]: 8.57 µM | GI50 [7]: 1.69 µM | TGI [7]: 3.53 µM | GI50 [8]: 3.5 µM | TGI [8]: 10.8 µM | GI50 [9]: 1.81 µM | TGI [9]: 3.48 µM | GI50 [10]: 3.09 µM | TGI [10]: 9.58 µM

C[C@]12CC[C@@H]3c4cc(OC(F)F)c(OS(N)(=O)=O)cc4CC[C@H]3[C@@H]1CC[C@@H]2OS(N)(=O)=O
GI50 [1]: 0.696 µM | TGI [1]: 28.9 µM | GI50 [2]: 0.389 µM | TGI [2]: > 100 µM | GI50 [3]: 1.74 µM | TGI [3]: > 59 µM | GI50 [4]: 2170 nM | TGI [4]: 28.4 µM | GI50 [5]: 1.46 µM | TGI [5]: 19.8 µM | GI50 [6]: 1420 nM | TGI [6]: 19.4 µM | GI50 [7]: 2.35 µM | TGI [7]: 22 µM | GI50 [8]: 1.47 µM | TGI [8]: 22.4 µM | GI50 [9]: 0.631 µM | TGI [9]: 17.7 µM | GI50 [10]: 6.44 µM | TGI [10]: 49.8 µM

COc1cc2c(cc1Cc1cccc(Cl)c1F)c(=O)c(C(=O)O)cn2[C@@H](CO)C(C)C
GI50 [1]: 4.99 µM | TGI [1]: 19.4 µM | GI50 [2]: 3.84 µM | TGI [2]: 16.3 µM | GI50 [3]: 3.03 µM | TGI [3]: 11.8 µM | GI50 [4]: 3320 nM | TGI [4]: 10.9 µM | GI50 [5]: 3.28 µM | TGI [5]: 12.7 µM | GI50 [6]: 2620 nM | TGI [6]: 11.9 µM | GI50 [7]: 5.16 µM | TGI [7]: 18.9 µM | GI50 [8]: 5.62 µM | TGI [8]: 18.8 µM | GI50 [9]: 3.65 µM | TGI [9]: 15 µM | GI50 [10]: 5.42 µM | TGI [10]: 19.1 µM

COc1cc(/C(=C2/O[C@@H]([C@H]3COC(C)(C)O3)[C@H]3OC(C)(C)O[C@@H]23)c2ccc3ccccc3c2)cc(OC)c1OC
GI50 [1]: 4.26 µM | TGI [1]: 22.3 µM | GI50 [2]: 4.02 µM | TGI [2]: > 100 µM | GI50 [3]: 3.89 µM | TGI [3]: > 100 µM | GI50 [4]: 2390 nM | TGI [4]: 5.67 µM | GI50 [5]: 4.54 µM | TGI [5]: > 100 µM | GI50 [6]: 3470 nM | TGI [6]: > 100 µM | GI50 [7]: 2.07 µM | TGI [7]: 5.59 µM | GI50 [8]: 4.33 µM | TGI [8]: > 100 µM | GI50 [9]: 6.7 µM | TGI [9]: 23.8 µM | GI50 [10]: 3.13 µM | TGI [10]: 15.9 µM

COc1cccc(/C=N/NC(=O)c2ccccc2N2CCCC2)c1O
GI50 [1]: 2.8 µM | TGI [1]: > 100 µM | GI50 [2]: 5.45 µM | TGI [2]: > 100 µM | GI50 [3]: 5.49 µM | TGI [3]: > 100 µM | GI50 [4]: 3300 nM | TGI [4]: > 100 µM | GI50 [5]: 3.97 µM | TGI [5]: > 100 µM | GI50 [6]: 2280 nM | TGI [6]: > 100 µM | GI50 [7]: 15 µM | TGI [7]: 88.1 µM | GI50 [8]: 8.96 µM | TGI [8]: > 100 µM | GI50 [9]: 3.08 µM | TGI [9]: 24.2 µM | GI50 [10]: 6.46 µM | TGI [10]: > 100 µM

CC1=CCCC2C1(C)CCC(C)C2(C)Cc1cc(O)ccc1O (configuration not stated)
TGI [1]: 18.2 µM and 18.9 µM | GI50 [2]: 5.44 µM | TGI [2]: 40.8 µM and 19.9 µM | TGI [3]: 16.7 µM and 17.7 µM | GI50 [4]: 9970 nM | TGI [4]: 22.2 µM and 19.3 µM | GI50 [5]: 14.1 µM | TGI [5]: 27.2 µM and 22.5 µM | TGI [6]: 19.1 µM and 15.4 µM | GI50 [7]: 14.7 µM | TGI [7]: 29.2 µM and 35.7 µM | TGI [8]: 30.4 µM | TGI [9]: 29.5 µM | GI50 [10]: 5.4 µM | TGI [10]: 21.1 µM and 20.7 µM

COc1ccc2c(c1)CC[C@@H]1[C@@H]2CC[C@]2(C)c3c(cc(C(=O)O)c4sccc34)C[C@@H]12
GI50 [1]: 15.4 µM | TGI [1]: 40.2 µM | GI50 [2]: 5.79 µM | TGI [2]: 20.9 µM | GI50 [3]: 24.5 µM | TGI [3]: 88.1 µM | GI50 [4]: 24700 nM | TGI [4]: 72.1 µM | GI50 [5]: 33.8 µM | TGI [5]: 63.7 µM | GI50 [6]: 20200 nM | TGI [6]: 64.7 µM | GI50 [7]: 22.6 µM | TGI [7]: 42.7 µM | GI50 [8]: 19.2 µM | TGI [8]: 36.2 µM | GI50 [9]: 18.2 µM | TGI [9]: 37.1 µM | GI50 [10]: 17.6 µM | TGI [10]: 48.3 µM

CC[C@@H](C(=O)[C@H](C)[C@H](O)[C@@H](C)[C@H]1O[C@H]([C@@H](CC)C(=O)N(CC)CC)CC[C@H]1C)C1O[C@]2(C=C[C@@H](O)[C@]3(CC[C@@](C)([C@H]4CC[C@](O)(CC)[C@H](C)O4)O3)O2)[C@H](C)C[C@@H]1C (some centres not stated)
GI50 [1]: 2.56 µM | TGI [1]: 9.27 µM | GI50 [2]: 3.12 µM | TGI [2]: 19.4 µM | GI50 [3]: 3.42 µM | TGI [3]: 21.1 µM | GI50 [4]: 2640 nM | TGI [4]: 8.16 µM | GI50 [5]: 2.12 µM | TGI [5]: 8.06 µM | GI50 [6]: 2400 nM | TGI [6]: 7.94 µM | GI50 [7]: 2.21 µM | TGI [7]: 5.7 µM | GI50 [8]: 3.91 µM | TGI [8]: 14.9 µM | GI50 [10]: 3.6 µM | TGI [10]: 19.3 µM

CCOC(=O)c1cc(C(=O)c2cc(OC)c(OC)c(OC)c2)n2c1ccc1ccccc12
GI50 [1]: 0.172 µM | TGI [1]: > 100 µM | GI50 [2]: 0.0604 µM | TGI [2]: > 100 µM | GI50 [3]: 0.489 µM | TGI [3]: > 100 µM | GI50 [4]: 151 nM | TGI [4]: 1.26 µM | GI50 [5]: 0.0717 µM | TGI [5]: > 100 µM | GI50 [6]: 502 nM | TGI [6]: > 100 µM | GI50 [7]: 0.634 µM | TGI [7]: > 100 µM | GI50 [8]: 0.372 µM | TGI [8]: > 100 µM | GI50 [9]: 0.137 µM | TGI [9]: > 100 µM | GI50 [10]: 1.94 µM | TGI [10]: > 100 µM
